Data published in PMC4854315, “Discovery of a novel allosteric inhibitor-binding site in ERK5: comparison with the canonical kinase hinge ATP-binding site” (Acta Crystallographica. Section D, Structural Biology, 2016).

How the values were obtained:
Assay in all cases: Z'-LYTE kinase panel
Assay type in all cases: biochemical
ABL1 = target: T1, ABL1 (Homo sapiens, UniProt P00519)
T1 construct: purchased ThermoFisher (SelectScreen, Z'-LYTE)
Summary of the method: (§1)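 Each compound was added at 10 µM, kinase activity was then measured via the standard Z′-LYTE assay, and percentage inhibition was calculated; 225 kinases were covered.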

BMX = target: T2, BMX (Homo sapiens, UniProt P51813)
T2 construct: purchased ThermoFisher (SelectScreen, Z'-LYTE)
T2 sequence (P51813 1-675): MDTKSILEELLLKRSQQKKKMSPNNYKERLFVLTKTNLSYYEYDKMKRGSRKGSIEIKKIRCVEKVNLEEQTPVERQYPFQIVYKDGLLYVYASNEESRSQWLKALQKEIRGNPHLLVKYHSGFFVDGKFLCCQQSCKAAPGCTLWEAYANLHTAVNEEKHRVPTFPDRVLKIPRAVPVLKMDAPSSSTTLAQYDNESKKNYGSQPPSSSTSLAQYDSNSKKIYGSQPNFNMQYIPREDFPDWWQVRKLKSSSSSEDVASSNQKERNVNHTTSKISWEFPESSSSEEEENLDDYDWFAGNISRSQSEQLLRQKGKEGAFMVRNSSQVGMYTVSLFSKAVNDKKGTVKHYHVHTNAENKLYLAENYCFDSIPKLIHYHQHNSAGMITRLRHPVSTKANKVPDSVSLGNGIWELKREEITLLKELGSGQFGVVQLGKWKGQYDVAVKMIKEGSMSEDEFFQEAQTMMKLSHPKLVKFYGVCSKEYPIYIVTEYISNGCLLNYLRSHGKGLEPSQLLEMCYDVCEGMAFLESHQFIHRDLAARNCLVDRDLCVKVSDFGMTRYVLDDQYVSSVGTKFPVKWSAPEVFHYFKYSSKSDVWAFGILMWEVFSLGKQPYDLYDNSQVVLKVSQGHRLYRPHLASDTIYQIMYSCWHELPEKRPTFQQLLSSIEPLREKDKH
Summary of the method: as §1

CSNK1G2 (CK1 gamma 2) = target: T3, CSNK1G2 (CK1 gamma 2) (Homo sapiens, UniProt P78368)
T3 construct: purchased ThermoFisher (SelectScreen, Z'-LYTE)
Summary of the method: as §1

EPHB3 = target: T4, EPHB3 (Homo sapiens, UniProt P54753)
T4 construct: purchased ThermoFisher (SelectScreen, Z'-LYTE)
T4 sequence (P54753 34-998): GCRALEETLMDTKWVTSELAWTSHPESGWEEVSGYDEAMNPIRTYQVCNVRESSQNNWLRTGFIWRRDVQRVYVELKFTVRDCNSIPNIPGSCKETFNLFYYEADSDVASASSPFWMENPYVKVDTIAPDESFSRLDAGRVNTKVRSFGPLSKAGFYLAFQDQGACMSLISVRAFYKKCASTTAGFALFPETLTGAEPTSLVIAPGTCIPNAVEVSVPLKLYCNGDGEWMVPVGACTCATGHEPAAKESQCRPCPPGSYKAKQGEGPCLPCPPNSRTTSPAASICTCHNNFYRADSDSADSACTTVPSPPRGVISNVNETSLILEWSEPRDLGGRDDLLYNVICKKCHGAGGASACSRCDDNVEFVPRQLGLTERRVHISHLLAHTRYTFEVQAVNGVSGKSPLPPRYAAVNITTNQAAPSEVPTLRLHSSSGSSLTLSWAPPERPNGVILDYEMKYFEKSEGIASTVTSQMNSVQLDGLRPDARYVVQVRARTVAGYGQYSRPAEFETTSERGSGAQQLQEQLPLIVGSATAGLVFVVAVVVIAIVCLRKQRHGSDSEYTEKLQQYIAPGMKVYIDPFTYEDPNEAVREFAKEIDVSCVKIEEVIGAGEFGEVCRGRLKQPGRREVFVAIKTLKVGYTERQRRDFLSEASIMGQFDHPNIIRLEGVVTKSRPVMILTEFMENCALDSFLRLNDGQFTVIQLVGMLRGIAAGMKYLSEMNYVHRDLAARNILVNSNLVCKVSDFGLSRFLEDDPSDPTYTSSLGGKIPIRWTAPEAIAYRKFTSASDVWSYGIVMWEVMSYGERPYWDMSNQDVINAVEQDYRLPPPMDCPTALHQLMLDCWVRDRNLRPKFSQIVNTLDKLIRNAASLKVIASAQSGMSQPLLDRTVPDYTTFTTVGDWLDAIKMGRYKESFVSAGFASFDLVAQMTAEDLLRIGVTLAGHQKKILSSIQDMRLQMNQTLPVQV
Summary of the method: as §1

MAP2K6 (MKK6) = target: T5, MAP2K6 (MKK6) (Homo sapiens, UniProt P52564); settings: 10 µM compound; ATP 100
T5 construct: purchased ThermoFisher (SelectScreen, Z'-LYTE)
T5 sequence (P52564 1-334): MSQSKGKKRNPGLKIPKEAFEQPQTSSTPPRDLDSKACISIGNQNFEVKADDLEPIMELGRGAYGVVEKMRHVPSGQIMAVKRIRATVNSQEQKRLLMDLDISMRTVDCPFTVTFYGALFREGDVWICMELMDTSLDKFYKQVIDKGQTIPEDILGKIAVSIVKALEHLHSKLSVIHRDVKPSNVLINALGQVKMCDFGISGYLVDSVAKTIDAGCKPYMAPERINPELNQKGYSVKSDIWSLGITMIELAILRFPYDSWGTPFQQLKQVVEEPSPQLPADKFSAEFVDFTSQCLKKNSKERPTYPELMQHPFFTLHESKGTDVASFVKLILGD
Summary of the method: as §1

NEK2 = target: T6, NEK2 (Homo sapiens, UniProt P51955)
T6 construct: purchased ThermoFisher (SelectScreen, Z'-LYTE)
T6 sequence (P51955 1-445): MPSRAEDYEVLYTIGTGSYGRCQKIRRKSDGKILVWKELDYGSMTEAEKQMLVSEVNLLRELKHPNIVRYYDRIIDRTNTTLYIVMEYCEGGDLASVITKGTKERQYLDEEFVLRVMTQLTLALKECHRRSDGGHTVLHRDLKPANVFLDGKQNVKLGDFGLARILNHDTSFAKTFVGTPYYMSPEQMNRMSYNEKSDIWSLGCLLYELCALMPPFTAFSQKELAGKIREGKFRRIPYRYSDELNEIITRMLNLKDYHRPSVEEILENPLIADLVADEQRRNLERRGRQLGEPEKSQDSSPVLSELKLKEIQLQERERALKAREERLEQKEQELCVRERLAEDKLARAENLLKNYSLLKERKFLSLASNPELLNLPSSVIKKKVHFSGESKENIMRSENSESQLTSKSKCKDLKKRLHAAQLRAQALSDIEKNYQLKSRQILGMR
Summary of the method: as §1

NTRK2 (TRKB) = target: T7, NTRK2 (TRKB) (Homo sapiens, UniProt Q16620)
T7 construct: purchased ThermoFisher (SelectScreen, Z'-LYTE)
Summary of the method: as §1

ROCK2 = target: T8, ROCK2 (Homo sapiens, UniProt O75116)
T8 construct: purchased ThermoFisher (SelectScreen, Z'-LYTE)
Summary of the method: as §1

RPS6KA2 (RSK3) = target: T9, RPS6KA2 (RSK3) (Homo sapiens, UniProt Q15349)
T9 construct: purchased ThermoFisher (SelectScreen, Z'-LYTE)
Summary of the method: as §1

T7 sequence (Q16620 32-822): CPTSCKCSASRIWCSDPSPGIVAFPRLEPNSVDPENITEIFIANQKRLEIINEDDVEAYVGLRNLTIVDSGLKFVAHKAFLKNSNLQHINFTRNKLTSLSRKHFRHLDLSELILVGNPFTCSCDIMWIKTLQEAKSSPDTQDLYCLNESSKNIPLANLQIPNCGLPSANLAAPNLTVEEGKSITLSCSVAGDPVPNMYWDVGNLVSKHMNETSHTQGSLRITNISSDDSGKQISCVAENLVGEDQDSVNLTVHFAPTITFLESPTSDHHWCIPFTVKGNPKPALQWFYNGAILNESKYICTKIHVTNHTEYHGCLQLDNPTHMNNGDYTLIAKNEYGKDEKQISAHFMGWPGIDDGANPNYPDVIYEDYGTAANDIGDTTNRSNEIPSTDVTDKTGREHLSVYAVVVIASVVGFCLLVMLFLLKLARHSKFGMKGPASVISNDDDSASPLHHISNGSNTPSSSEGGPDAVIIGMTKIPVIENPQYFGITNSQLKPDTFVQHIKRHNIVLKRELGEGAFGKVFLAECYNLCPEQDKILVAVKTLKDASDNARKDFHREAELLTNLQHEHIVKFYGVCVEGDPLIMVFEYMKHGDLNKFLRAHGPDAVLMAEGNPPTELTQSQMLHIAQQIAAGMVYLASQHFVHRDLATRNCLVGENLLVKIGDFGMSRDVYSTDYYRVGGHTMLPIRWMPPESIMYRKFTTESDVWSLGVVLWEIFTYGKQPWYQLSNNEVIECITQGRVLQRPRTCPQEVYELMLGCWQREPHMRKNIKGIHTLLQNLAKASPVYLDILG
T3 sequence (P78368 whole entry): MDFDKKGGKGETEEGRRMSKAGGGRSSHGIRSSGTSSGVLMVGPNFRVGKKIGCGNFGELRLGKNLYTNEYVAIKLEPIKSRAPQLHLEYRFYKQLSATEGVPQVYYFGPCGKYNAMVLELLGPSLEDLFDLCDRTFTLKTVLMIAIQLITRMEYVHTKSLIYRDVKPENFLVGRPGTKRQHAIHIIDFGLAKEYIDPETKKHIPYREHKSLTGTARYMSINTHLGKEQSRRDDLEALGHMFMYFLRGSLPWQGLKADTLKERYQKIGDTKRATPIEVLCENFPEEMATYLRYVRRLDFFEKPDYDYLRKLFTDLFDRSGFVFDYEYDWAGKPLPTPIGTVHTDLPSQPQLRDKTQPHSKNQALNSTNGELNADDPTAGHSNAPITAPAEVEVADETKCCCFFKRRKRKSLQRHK
T8 sequence (O75116 whole entry): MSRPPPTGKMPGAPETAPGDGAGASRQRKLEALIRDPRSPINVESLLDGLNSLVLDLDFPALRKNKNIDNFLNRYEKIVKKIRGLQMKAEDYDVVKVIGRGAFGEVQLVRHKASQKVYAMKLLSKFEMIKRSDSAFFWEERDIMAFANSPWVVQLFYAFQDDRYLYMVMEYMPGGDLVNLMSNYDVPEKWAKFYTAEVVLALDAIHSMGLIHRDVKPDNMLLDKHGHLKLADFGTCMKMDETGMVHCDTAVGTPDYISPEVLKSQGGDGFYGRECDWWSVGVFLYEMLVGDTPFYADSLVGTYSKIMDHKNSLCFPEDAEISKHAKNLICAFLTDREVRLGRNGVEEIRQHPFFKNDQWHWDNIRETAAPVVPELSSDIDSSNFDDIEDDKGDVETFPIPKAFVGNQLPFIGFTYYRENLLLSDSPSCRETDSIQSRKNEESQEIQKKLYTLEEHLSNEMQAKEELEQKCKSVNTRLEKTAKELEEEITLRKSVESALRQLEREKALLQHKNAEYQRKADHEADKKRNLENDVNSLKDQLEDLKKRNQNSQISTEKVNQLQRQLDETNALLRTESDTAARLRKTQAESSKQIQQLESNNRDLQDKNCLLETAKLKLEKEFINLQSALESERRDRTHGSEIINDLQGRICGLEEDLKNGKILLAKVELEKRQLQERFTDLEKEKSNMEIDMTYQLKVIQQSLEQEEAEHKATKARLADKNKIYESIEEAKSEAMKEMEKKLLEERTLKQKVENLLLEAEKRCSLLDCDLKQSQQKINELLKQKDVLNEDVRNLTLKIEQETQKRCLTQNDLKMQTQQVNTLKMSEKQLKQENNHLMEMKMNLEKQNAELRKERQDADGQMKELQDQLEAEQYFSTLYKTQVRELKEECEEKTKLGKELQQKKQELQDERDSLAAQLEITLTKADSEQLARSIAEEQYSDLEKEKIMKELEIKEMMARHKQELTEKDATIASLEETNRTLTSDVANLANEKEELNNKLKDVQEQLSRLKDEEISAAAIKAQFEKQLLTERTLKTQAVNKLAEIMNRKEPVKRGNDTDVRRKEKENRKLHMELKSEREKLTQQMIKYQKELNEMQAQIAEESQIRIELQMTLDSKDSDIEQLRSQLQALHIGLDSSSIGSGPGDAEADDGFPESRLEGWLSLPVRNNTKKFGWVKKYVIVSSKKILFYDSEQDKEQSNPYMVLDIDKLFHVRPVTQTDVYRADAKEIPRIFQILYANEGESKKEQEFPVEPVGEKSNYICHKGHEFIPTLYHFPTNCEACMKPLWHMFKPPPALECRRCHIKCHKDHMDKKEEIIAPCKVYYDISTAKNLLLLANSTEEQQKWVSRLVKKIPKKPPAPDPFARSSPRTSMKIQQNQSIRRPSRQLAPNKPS
T9 sequence (Q15349 whole entry): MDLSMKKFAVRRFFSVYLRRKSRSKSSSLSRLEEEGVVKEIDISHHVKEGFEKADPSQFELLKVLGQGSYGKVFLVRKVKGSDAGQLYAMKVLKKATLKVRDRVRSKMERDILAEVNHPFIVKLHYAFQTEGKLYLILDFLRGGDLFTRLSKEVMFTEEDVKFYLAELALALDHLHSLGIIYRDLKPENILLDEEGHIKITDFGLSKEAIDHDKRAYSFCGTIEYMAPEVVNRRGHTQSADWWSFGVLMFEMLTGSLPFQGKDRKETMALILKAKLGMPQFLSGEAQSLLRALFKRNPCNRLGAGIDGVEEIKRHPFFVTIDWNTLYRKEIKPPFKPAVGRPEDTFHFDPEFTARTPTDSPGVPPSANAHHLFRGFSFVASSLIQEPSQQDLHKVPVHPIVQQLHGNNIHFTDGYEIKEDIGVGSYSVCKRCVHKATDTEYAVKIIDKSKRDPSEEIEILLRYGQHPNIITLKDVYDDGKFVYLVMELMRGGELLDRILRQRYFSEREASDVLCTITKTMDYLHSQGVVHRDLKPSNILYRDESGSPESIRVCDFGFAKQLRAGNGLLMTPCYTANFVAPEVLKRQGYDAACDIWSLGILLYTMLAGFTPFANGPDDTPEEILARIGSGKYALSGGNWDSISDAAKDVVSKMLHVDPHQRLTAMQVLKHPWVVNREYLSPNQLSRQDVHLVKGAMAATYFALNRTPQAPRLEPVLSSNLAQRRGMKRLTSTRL
T1 sequence (P00519 whole entry): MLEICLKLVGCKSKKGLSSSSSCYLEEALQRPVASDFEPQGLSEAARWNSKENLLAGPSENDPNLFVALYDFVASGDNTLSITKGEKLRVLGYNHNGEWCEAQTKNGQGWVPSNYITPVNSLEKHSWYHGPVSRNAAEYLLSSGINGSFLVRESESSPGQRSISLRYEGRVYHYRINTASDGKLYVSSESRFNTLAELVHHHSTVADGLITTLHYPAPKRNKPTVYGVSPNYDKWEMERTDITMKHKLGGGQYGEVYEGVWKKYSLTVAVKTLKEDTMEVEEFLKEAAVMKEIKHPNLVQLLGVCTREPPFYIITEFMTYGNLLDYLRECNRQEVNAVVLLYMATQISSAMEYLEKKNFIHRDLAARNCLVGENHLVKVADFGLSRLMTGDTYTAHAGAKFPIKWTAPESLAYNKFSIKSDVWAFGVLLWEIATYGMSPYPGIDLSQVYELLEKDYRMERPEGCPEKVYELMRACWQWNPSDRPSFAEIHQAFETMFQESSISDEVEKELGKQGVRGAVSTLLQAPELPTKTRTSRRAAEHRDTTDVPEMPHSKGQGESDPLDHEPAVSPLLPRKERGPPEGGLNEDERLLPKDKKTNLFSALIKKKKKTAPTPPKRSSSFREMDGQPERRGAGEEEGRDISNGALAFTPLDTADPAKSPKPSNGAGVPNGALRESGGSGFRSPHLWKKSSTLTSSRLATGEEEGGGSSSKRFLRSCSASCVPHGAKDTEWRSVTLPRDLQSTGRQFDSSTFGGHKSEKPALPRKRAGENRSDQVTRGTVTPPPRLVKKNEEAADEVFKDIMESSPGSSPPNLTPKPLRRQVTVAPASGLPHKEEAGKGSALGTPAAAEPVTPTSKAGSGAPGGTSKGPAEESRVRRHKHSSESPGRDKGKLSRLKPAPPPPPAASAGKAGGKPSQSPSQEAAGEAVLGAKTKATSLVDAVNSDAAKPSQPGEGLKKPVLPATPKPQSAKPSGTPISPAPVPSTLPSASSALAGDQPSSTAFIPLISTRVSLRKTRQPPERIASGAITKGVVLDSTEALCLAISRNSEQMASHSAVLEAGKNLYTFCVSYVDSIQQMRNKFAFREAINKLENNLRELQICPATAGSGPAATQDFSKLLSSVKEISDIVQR

| Compound | inhibition at 10 µM (ABL1) [%] | inhibition at 10 µM (BMX) [%] | inhibition at 10 µM (CSNK1G2 (CK1 gamma 2)) [%] | inhibition at 10 µM (EPHB3) [%] | inhibition at 10 µM (MAP2K6 (MKK6)) [%] | inhibition at 10 µM (NEK2) [%] | inhibition at 10 µM (NTRK2 (TRKB)) [%] | inhibition at 10 µM (ROCK2) [%] | inhibition at 10 µM (RPS6KA2 (RSK3)) [%] | ABL1 % Inhibition (ABL1; 10 µM compound, ATP Km app) [%] | BMX % Inhibition (BMX; 10 µM compound, ATP Km app) [%] | CSNK1G2 (CK1 gamma 2) % Inhibition (CSNK1G2 (CK1 gamma 2); 10 µM compound, ATP Km app) [%] | EPHB3 % Inhibition (EPHB3; 10 µM compound, ATP Km app) [%] | MAP2K6 (MKK6) % Inhibition (MAP2K6 (MKK6)) [%] | NEK2 % Inhibition (NEK2; 10 µM compound, ATP Km app) [%] | NTRK2 (TRKB) % Inhibition (NTRK2 (TRKB); 10 µM compound, ATP Km app) [%] | ROCK2 % Inhibition (ROCK2; 10 µM compound, ATP Km app) [%] | RPS6KA2 (RSK3) % Inhibition (RPS6KA2 (RSK3); 10 µM compound, ATP Km app) [%] |
| --- | --- | --- | --- | --- | --- | --- | --- | --- | --- | --- | --- | --- | --- | --- | --- | --- | --- | --- |
| Cc1ncc(-c2nc(Nc3ccc(C(=O)NCCN4CCCCC4)cc3)ncc2F)n1C(C)C [Compound 3] | 91 | 68 | 93 | 51 | 88 | -7.52 | 87 | 40 | 90 |  |  |  |  |  |  |  |  |  |
| Cc1cc(Nc2nc(N)nn2C(=O)NC(C)C)ccc1Cl [Compound 5] | 57 | 19 | 10 | 0.2 | -1.06 | -3 | 29 | 37 | 70 |  |  |  |  |  |  |  |  |  |
| XMD8-92 [Compound 2, reference compound] |  |  |  |  |  |  |  |  |  | 72 | 41 | 11 | 22 | 8 | -17 | 81 | 93 | 23 |
